Active and inactive are the calls of the source. The rule behind the calls is not given here.
Assays:
[1] = target: T1, Catechol O-methyltransferase (Homo sapiens, UniProt P21964); assay: (§1) Inhibition of human recombinant His-tagged soluble COMT expressed in Escherichia coli BL21 using aesculetin as substrate after 60 mins by microplate assay in presence of SAM
T1 sequence (P21964 whole entry): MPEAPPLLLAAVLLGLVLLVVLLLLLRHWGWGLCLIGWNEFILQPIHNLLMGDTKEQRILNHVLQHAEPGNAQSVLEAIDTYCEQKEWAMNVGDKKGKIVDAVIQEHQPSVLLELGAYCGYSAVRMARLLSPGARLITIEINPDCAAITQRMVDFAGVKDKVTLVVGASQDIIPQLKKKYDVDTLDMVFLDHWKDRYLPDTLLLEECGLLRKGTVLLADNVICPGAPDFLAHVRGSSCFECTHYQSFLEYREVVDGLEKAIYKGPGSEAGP

Acireductone dioxygenase = target: T2, Acireductone dioxygenase (Homo sapiens, UniProt Q9BV57); assay: Binding affinity to ADL1 in human HepG2 assessed as intensity fold change of cumulated normalized intensity of protein between capture and competition assay at 100 uM after 1 hr in presence of active Tcp-CC-13 by differential competition capture compound mass spectrometry; format: ADME
T2 sequence (Q9BV57 whole entry): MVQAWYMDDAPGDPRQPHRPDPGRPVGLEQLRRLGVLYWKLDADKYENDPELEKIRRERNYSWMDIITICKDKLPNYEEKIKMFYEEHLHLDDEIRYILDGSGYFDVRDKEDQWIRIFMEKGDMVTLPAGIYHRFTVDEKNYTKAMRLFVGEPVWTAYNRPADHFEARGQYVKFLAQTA

[2] = target: Kynurenine--oxoglutarate transaminase 3 (Homo sapiens, UniProt Q6YP21); assay: Binding affinity to CCBL2 in human HepG2 assessed as intensity fold change of cumulated normalized intensity of protein between capture and competition assay at 100 uM after 1 hr in presence of active Tcp-CC-13 by differential competition capture compound mass spectrometry; format: ADME
[3] = target: T3, Glutaryl-CoA dehydrogenase, mitochondrial (Homo sapiens, UniProt Q92947); assay: Binding affinity to GCDH in human HepG2 assessed as intensity fold change of cumulated normalized intensity of protein between capture and competition assay at 100 uM after 1 hr in presence of active Tcp-CC-13 by differential competition capture compound mass spectrometry; format: ADME
T3 sequence (Q92947 whole entry): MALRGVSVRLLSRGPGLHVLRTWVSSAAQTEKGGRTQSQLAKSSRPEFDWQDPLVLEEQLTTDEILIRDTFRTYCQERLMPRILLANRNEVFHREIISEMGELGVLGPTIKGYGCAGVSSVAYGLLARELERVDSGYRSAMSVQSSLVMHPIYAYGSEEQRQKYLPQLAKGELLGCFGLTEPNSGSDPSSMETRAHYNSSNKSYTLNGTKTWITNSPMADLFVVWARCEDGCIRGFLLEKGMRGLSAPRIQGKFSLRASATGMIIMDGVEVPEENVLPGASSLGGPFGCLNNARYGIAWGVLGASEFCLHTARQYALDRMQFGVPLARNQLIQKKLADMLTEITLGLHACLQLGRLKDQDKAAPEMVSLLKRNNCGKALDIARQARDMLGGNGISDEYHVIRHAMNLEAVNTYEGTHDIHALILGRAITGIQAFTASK

Pyridoxal kinase = target: T4, Pyridoxal kinase (Homo sapiens, UniProt O00764); assay: Binding affinity to PDXK in human HepG2 assessed as intensity fold change of cumulated normalized intensity of protein between capture and competition assay at 100 uM after 1 hr in presence of inactive Tcp-CC 14 by differential competition capture compound mass spectrometry; format: ADME
T4 sequence (O00764 whole entry): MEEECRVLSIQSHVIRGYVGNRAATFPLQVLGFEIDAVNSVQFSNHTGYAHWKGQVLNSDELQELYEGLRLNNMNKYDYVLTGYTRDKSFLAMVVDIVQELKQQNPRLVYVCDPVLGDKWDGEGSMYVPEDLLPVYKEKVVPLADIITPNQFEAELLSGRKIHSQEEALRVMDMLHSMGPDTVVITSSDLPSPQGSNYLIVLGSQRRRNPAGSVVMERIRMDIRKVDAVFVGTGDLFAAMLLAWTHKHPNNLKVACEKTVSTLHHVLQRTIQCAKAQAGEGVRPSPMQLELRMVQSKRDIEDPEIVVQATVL

[4] = target: Aldo-keto reductase family 1 member B10 (Homo sapiens, UniProt O60218); assay: Binding affinity to AKR1B10 in human HepG2 assessed as intensity fold change of cumulated normalized intensity of protein between capture and competition assay at 100 uM after 1 hr in presence of inactive Tcp-CC 14 by differential competition capture compound mass spectrometry; format: ADME
[5] = target: T5, 3-hydroxyisobutyryl-CoA hydrolase, mitochondrial (Homo sapiens) (UniProt Q6NVY1); assay: Binding affinity to human recombinant HIBCH assessed as intensity fold change of cumulated normalized intensity of protein between capture and competition assay at 100 uM after 1 hr in presence of active Tcp-CC-13 by differential competition capture compound mass spectrometry
T5 sequence (whole entry): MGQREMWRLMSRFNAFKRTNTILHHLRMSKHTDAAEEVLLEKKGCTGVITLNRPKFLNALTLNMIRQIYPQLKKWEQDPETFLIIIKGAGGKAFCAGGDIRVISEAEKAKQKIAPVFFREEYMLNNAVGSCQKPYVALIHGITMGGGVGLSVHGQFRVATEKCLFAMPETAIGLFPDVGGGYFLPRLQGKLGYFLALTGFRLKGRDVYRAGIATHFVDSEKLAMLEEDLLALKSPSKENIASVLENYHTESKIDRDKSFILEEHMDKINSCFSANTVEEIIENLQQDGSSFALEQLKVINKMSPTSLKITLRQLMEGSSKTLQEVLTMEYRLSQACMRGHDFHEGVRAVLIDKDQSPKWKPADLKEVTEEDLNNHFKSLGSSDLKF

[6] = target: T5, 3-hydroxyisobutyryl-CoA hydrolase, mitochondrial (Homo sapiens); assay: Binding affinity to human recombinant HIBCH assessed as intensity fold change of cumulated normalized intensity of protein between capture and competition assay at 100 uM after 1 hr in presence of inactive Tcp-CC-14 by differential competition capture compound mass spectrometry
HepG2 [7] = assay: Mitochondrial toxicity in human HepG2 cells assessed as mitochondrial membrane potential levels at 50 uM by TMRE-based mitochondria membrane potential assay relative to control; format: cell-based; conditions: hepg2, 50 µM
HepG2 [8] = assay: Mitochondrial toxicity in human HepG2 cells assessed as mitochondrial membrane potential levels at 100 uM by TMRE-based mitochondria membrane potential assay relative to control; format: cell-based; conditions: hepg2, 100 µM
[9] = target: T6, Protein NipSnap homolog 3A (Homo sapiens, UniProt Q9UFN0); assay: Binding affinity to NIPSNAP3A in human HepG2 assessed as intensity fold change of cumulated normalized intensity of protein between capture and competition assay at 100 uM after 1 hr in presence of inactive Tcp-CC 14 by differential competition capture compound mass spectrometry; format: ADME
T6 sequence (Q9UFN0 whole entry): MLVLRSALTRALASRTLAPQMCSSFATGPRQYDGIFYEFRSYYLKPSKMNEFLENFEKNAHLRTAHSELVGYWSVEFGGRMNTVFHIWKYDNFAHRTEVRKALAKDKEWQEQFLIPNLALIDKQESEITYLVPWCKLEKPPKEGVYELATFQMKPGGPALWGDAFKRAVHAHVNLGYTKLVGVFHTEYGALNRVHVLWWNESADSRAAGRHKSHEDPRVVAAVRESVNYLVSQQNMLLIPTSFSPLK

[10] = target: T7, Catechol O-methyltransferase (Homo sapiens) (UniProt P21964); assay: as §1
T7 sequence (whole entry): T1 sequence (P21964 whole entry)

Aldo-keto reductase family 1 member B10, sequence (O60218 whole entry): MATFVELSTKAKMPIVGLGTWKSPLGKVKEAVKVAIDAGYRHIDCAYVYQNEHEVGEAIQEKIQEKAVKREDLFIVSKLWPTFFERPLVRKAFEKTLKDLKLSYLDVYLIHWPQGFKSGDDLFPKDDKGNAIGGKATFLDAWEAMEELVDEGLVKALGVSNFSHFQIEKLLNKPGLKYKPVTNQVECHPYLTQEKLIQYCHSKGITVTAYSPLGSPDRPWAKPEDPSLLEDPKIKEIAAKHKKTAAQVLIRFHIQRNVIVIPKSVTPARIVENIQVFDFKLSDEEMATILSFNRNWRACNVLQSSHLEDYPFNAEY
Kynurenine--oxoglutarate transaminase 3, sequence (Q6YP21 whole entry): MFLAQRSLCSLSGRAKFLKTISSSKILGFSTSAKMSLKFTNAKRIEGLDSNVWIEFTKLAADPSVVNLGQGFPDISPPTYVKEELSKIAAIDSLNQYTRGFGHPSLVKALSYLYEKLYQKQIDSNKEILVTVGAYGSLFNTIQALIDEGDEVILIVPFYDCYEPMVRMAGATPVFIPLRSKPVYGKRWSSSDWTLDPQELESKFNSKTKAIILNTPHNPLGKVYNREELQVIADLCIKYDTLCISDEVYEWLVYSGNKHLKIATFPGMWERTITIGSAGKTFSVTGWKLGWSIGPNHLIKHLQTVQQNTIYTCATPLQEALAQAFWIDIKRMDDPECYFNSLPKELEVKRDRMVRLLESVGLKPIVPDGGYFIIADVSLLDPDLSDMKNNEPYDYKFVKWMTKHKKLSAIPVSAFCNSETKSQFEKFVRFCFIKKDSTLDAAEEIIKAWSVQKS

SMILES | IC50 [1] [nM] | fold change (FC) [9] | inhibition [10] | fold change (FC) (Acireductone dioxygenase) | fold change (FC) [2] | fold change (FC) [3] | fold change (FC) (Pyridoxal kinase) | fold change (FC) [4] | fold change (FC) [5] | Activity [6] | Activity (HepG2 [7]) [%] | Activity (HepG2 [8]) [%]
Cc1ccc(C(=O)c2cc(O)c(O)c([N+](=O)[O-])c2)cc1 [TOLCAPONE] | – | – | – | 7.59 | 4.12 | 5.82 | 2.4 | 2.3 | 14.2 | Active | < 20 | 0
CCN(CC)C(=O)c1cc2cc(O)c(O)c([N+](=O)[O-])c2cc1C(=O)N(CC)CC | – | 7.5 | – | 3.67 | 3.05 | 5.9 | 16 | 4.7 | 5.35 | inactive | < 20 | 0
CCN(CC)C(=O)/C(C#N)=C/c1cc(O)c(O)c([N+](=O)[O-])c1 [ENTACAPONE] | – | 2.11 | – | 2.38 | 8.63 | 6.09 | 3.46 | 2.98 | 1.04 | – | > 50 | 40
CCN1C(=O)S/C(=C/c2cc(O)c(O)c([N+](=O)[O-])c2)C1=O | 179 | 3 | – | 4.29 | 3.4 | 6.34 | 24.9 | 3.1 | 1 | – | > 50 | –

Further lines, with some results ahead:

IC50 [1] [nM] | fold change (FC) [9] | inhibition [10] | SMILES | fold change (FC) (Acireductone dioxygenase) | fold change (FC) [2] | fold change (FC) [3] | fold change (FC) (Pyridoxal kinase) | fold change (FC) [4] | fold change (FC) [5] | Activity [6] | Activity (HepG2 [7]) [%] | Activity (HepG2 [8]) [%]
648 | – | – | CN(Cc1ccc(C(=O)c2cc(O)c(O)c([N+](=O)[O-])c2)cc1)C(=O)CCCCCNC(=O)C[C@H](NC(=O)c1ccc(N=[N+]=[N-])cc1)C(=O)NCCCOCCOCCOCCCNC(=O)CCCC[C@@H]1SC[C@@H]2NC(=O)N[C@@H]21 | – | – | – | – | – | – | – | – | –
– | – | inactive | Cc1ccc(C(=O)c2cc(OCCCCNC(=O)C[C@H](NC(=O)c3ccc(N=[N+]=[N-])cc3)C(=O)NCCCOCCOCCOCCCNC(=O)CCCC[C@@H]3SC[C@@H]4NC(=O)N[C@@H]43)c(O)c([N+](=O)[O-])c2)cc1 | – | – | – | – | – | – | – | – | –

Source: ChEMBL document CHEMBL3817783, “Identification of Potential Off-target Toxicity Liabilities of Catechol-O-methyltransferase Inhibitors by Differential Competition Capture Compound Mass Spectrometry” (J Med Chem, 2016)
